The results in this text go back to PMC5454592, “Pharmacological and Toxicological Properties of the Potent Oral γ-Secretase Modulator BPN-15606” (The Journal of Pharmacology and Experimental Therapeutics, 2017).

In data set [1] the test system is Notch proteolysis by γ-secretase. As to the kind of experiment: Notch assay (Myc-tagged Notch NΔE in H4-APP751 neuroglioma cells). The data set is classed as cell-based. Here is the method: Notch assays were carried out as described previously ([Wagner et al., 2014]).
A short description of data set [2]: Metabolite identification in cryopreserved hepatocytes. The data set is classed as in vitro ADME, mouse, rat, dog, monkey, human. The following applies: hepatocyte cultures from five species. Here is the method:
Test compound (1 μM) was incubated at 37°C for 4 hours with cryopreserved mouse, rat, dog, monkey, or human hepatocytes. Identification of metabolites’ molecular weights and relative abundance of the specific metabolites was based on high performance liquid chromatography (HPLC)/MS/MS peak areas, and structural characterization of metabolites was accomplished by LC/MS/MS/Q-Trap.

For data set [3], the system named is Aβ42 and Aβ40 levels. As to the kind of experiment: Repeat-dose (7-day) efficacy study in mice. The class given is in vivo, C57BL/6J mice. Here is the method: Male C57BL/6J mice (n = 10/dose level) and male Sprague–Dawley rats (n = 14/dose level) were administered either vehicle (80% polyethylene glycol 400 v/v; 20% sterile water v/v and 0.1% Tween 20 v/v) or BPN-15606 (10, 25, and 50 mg/kg) once daily po for 7 consecutive days (mice) or 5, 25, and 50 mg/kg once daily po for 9 consecutive days (rats). […] Animals were sacrificed 4 hours following the dosing on day 7 of the 7-day oral treatment course (mice) and on day 9 of the 9-day oral treatment course (rats). Plasma and brain extracts were prepared (mice and rats); CSF was aspirated from the cisterna magnum with minimal to no blood contamination (rats only); and tissues were frozen at −70°C. Aβ peptides were quantitated in brain extracts and plasma (mice) or CSF and plasma (rats), as described previously, using Meso Scale multiplex kits and the Meso Scale Sector Imager 6000 ([Kounnas et al., 2010]). Statistical analysis was performed using GraphPad Prism software, and results are expressed as mean ± S.E.M. Analysis of variance was used to detect a significant effect. Drug levels of BPN-15606 were measured in plasma and brain extracts using the bioanalytical methods detailed above.

Data set [4] concerns Aβ42 and Aβ40 levels. The experiment in a line: Acute single-dose pharmacodynamics in mice. To be noted: single oral dose 25 mg/kg, C57BL/6 mice. The data set is classed as in vivo, C57BL/6J mice. Here is the method:
Male C57BL/6J mice (n = 5 per group) were administered a single dose of either vehicle (80% polyethylene glycol 400 v/v; 20% sterile water v/v and 0.1% Tween 20 v/v) or BPN-15606 (25 mg/kg) by po and sacrificed at 0.5, 1, 2, 4, 8, 12, and 24 hours following the dosing. Plasma and brain extracts were prepared, and Aβ peptides were quantitated as described previously ([Kounnas et al., 2010]). Statistical analysis was performed as described above for the repeat dosing studies.

Data set [5] deals with bone marrow polychromatic erythrocytes. The experiment in a line: Bone marrow micronucleus assay in rats. The data set is classed as in vivo. To be noted: 7 days at 30 or 100 mg/kg. Here is the method: The micronucleus component of this study was performed to evaluate the ability of BPN-15606 to induce chromosomal damage in bone marrow of male Sprague–Dawley rats. Rats (n = 5/group) were scheduled to receive single daily doses of BPN-15606 for 7 days at 30, 100, and 300 mg/kg/d (groups 2, 3, and 4, respectively), with euthanasia scheduled 24 hours after the final dose. Animals receiving 300 mg/kg/d were sacrificed in moribund condition on day 3 or 4 due to excessive toxicity, and micronucleus formation was not evaluated; all other treated animals survived to necropsy. Bone marrow samples collected from the low and mid dose groups (30 and 100 mg/kg) were evaluated for cytotoxicity and for micronucleus formation (see Supplemental Table 8). Three bone marrow smear slides were prepared per animal and fixed in absolute methanol. […] Two slides per animal were stained with acridine orange, coded, and evaluated (blind) using epifluorescence microscopy. […] The criteria employed for identifying and quantitating micronuclei are those described by [Schmid (1975)]. Two principal parameters were determined, as follows: 1) the number of PCE among 200 total red blood cells (RBC) per animal (PCE/RBC ratio), which provides an index of bone marrow cytotoxicity, and 2) the number of micronucleated RNA-positive PCE among a total of 2000 PCE per animal, which provides an index of chromosomal damage.

A short description of data set [6]: Toxicokinetics in rats (7-day po). The class given is in vivo. To be noted: male, Sprague-Dawley, rat, plasma; for MRT last: day 1, read-out: mean residence time to the last time point. Here is the method: Data were subjected to noncompartmental analysis using WinNonlin Phoenix Model 200 (for extravascular administration) or Model 201 (for i.v. bolus administration) and the sparse sampling feature; a uniform weighting factor was applied to each data set. Time to maximum plasma concentration (Tmax) and maximum plasma concentration (Cmax) values were determined directly from the data. Area under the plasma concentration–time curve to the last time point (AUClast) values were calculated using the log/linear trapezoidal (i.v. dose) or linear up/log down trapezoidal (po dose). Values were calculated using the plasma data from composite groups. The dose administered was input to the program as mg/kg, and as a result no additional corrections for individual body weights of the animals were necessary. The following parameters and constants were determined for the i.v. and po groups: observed Cmax, Tmax, AUClast, area under the plasma concentration–time curve extrapolated to infinity, terminal phase elimination half-life, and mean residence time to the last time point. The volume of distribution at steady state and clearance were calculated using the i.v. group data. Bioavailability after oral administration was calculated using the AUClast values for both the i.v. and po groups.
The objectives of this toxicity study were to determine maximum tolerated dose (MTD), characterize the potential toxicity, and calculate toxicokinetic parameters of BPN-15606 in adult male Sprague–Dawley rats (8–10 weeks of age) following daily po dose administration for 7 consecutive days, and to evaluate its potential to damage chromosomes or cause mitotic spindle abnormalities in vivo, as measured by the incidence of micronucleus formation in RNA-containing erythrocytes (bone marrow micronucleus assay). An overview of the study design is presented in Supplemental Table 8. Male rats were administered BPN-15606 po for 7 consecutive days at 30, 100, or 300 mg/kg (groups 2, 3, and 4). A control group (group 1) was given vehicle, 15% Labrasol/85% sterile water, at an equivalent dose volume (10 ml/kg). A 375 mg/kg dose (group 5) was included for determination of day 1 plasma drug levels. Clinical observations were recorded twice daily.

“Also recorded” adds a separate entry of the source. Where two headings read alike, the source gives them in different places.

As for `COc1nc(-c2cc(C)c(N[C@@H](C)c3ccc(F)cc3)nn2)ccc1-n1cnc(C)c1` [BPN-15606, (S)-N-(1-(4-fluorophenyl)ethyl)-6-(6-methoxy-5-(4-methyl-1H-imidazol-1-yl)pyridin-2-yl)-4-methylpyridazin-3-amine], the Notch proteolysis entry in data set [1] (H4-APP751 neuroglioma cells transfected with Myc-tagged Notch (NΔE) construct, Fig. 3) is on record as “does not inhibit Notch proteolysis”. For the same molecule, the Notch cleavage result in data set [1] (doses as high as 25 μM) is given as “does not affect Notch cleavage”. The results for the uniquely human metabolites entry in data set [2] and in data set [2] (listed as BPN-15605) were “absence of any unique human metabolites” and “no uniquely human metabolites identified”, respectively. Further, the “lowering of brain Aβ42 levels” value in the data set with Aβ42 and Aβ40 levels [3] (mice, 10 mg/kg) is given as about 40%; in the data set with Aβ42 and Aβ40 levels [3] (mice, 25 mg/kg) it was 70–75%. In the data set with Aβ42 and Aβ40 levels [3] (mice, 25 mg/kg), the “lowering of plasma Aβ42” value was over 90%. Further, in the data set with Aβ42 and Aβ40 levels [3] (mice, 10, 25, 50 mg/kg po daily for 7 days), the clinical observations entry is given as “all animals appeared normal throughout the study”. In the data set with Aβ42 and Aβ40 levels [4], the “duration of effect on brain and plasma Aβ42 and Aβ40 levels” value was at least 24 h. In addition, the “onset of effect on brain and plasma Aβ42 and Aβ40 levels” value in the data set on Aβ42 and Aβ40 levels [4] is 30 to 60 min. For the same molecule, the “micronucleus induction in bone marrow (micronucleated PCE)” value in data set [5] is on record as “did not induce micronuclei; also recorded: no statistically significant increase”. Further, the “suppression of PCE among RBC in bone marrow” value in data set [5] is “no significant suppression”. For the same molecule, the Tmax (usually the time from dosing to the highest level) in data set [6] (30 mg/kg, rats, 30 mg/kg, day 1, read-out: mean Tmax) is 13.3 h; in data set [6] (30 mg/kg, rats, 30 mg/kg, day 7, read-out: mean Tmax) it was 6.7 h; in data set [6] (rats po, depending on dose, read-out: Tmax for individual animals), 4 to 24 h; in data set [6] (rats, 100 and 300 dose groups, day 1, read-out: mean Tmax (time to the peak plasma drug level)) it was 18.7 h. The MRT last was found to be 9.1 h in data set [6] (rats, 30 mg/kg) and 13.6 h in data set [6] (rats, 100 mg/kg).
